Literature values as cited in publication PMC8583936, “Machine Learning Assisted Approach for Finding Novel High Activity Agonists of Human Ectopic Olfactory Receptors” (International Journal of Molecular Sciences, 2021).
Where two headings read alike, the source gives them in different places.

Tests used:
[1] = molecular target: T1, OR1A1 (Homo sapiens, UniProt Q9P1Q5); conditions: cited from earlier work
T1 sequence (Q9P1Q5 1-309): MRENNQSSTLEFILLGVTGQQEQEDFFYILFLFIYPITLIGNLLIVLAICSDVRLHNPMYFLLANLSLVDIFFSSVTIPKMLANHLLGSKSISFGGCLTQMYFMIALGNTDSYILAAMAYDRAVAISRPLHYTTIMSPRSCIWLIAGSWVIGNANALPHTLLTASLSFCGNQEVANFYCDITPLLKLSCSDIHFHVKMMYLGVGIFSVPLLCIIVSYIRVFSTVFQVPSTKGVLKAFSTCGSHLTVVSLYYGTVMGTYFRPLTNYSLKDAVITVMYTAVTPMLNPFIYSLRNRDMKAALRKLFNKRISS

[2] = molecular target: T2, OR2W1 (Homo sapiens, UniProt Q9Y3N9); conditions: cited from earlier work
T2 sequence (Q9Y3N9 1-320): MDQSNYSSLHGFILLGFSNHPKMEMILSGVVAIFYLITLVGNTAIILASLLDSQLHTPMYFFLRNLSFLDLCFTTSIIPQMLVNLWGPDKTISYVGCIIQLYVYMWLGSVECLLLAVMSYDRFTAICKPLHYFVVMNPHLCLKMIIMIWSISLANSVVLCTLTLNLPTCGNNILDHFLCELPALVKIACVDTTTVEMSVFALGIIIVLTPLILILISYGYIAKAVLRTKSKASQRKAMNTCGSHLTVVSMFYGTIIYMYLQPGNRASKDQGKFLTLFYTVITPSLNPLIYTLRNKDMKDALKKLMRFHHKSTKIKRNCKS

[3] = Table S1, ref Supplement references [1]-[9] as printed after each odorant name
[4] = Table S2, ref Supplement references [2]-[12] as printed after each odorant name

Structure (SMILES)	Class (agonist / non-agonist / conflicting info.) for OR1A1 [1, 3]	Class (agonist / non-agonist / antagonist / conflicting info.) for OR2W1 [2, 4]	Class (agonist / non-agonist / conflicting info.) for OR1A1 [1]	Class (agonist / non-agonist / antagonist / conflicting info.) for OR2W1 [2]
CCOC(=O)C1CCCCC1 [Ethyl cyclohexanecarboxylate]	Agonist	Agonist		
CCCCCCCCCC(=O)OCC [Ethyl decanoate]			Non-agonist	Non-agonist
CCCCCC(=O)OCC [Ethyl hexanoate]	Agonist	Non-agonist		
CCOC(=O)C(C)C [Ethyl isobutyrate]	Non-agonist	Non-agonist		
CCOC(=O)CC(C)C [Ethyl isovalerate]	Non-agonist	Non-agonist		
CCCCCCCC(=O)OCC [Ethyl octanoate]			Non-agonist	Non-agonist
CCCCC(=O)OCC [Ethyl pentanoate]			Non-agonist	Non-agonist
CCOC(=O)C(C)=O [Ethyl pyruvate]	Non-agonist	Non-agonist		
CCOc1cc(C=O)ccc1O [Ethyl vanillin]	Conflicting info.	Conflicting info.		
C=CC(=O)CC [Ethyl vinyl ketone]	Non-agonist	Non-agonist		
O=C1CCCCCCCCCCCC(=O)OCCO1 [Ethylene brassylate]	Conflicting info.	Antagonist		
CCOC(=O)Cc1ccccc1 [Ethylphenyl acetate]			Agonist	Non-agonist
C=CCc1ccc(OC)c(OC)c1 [Eugenol methyl ether]	Conflicting info.	Non-agonist		
C=CCc1ccc(O)c(OC)c1 [Eugenol]			Conflicting info.	Conflicting info.
C=CCc1ccc(OC(C)=O)c(OC)c1 [Eugenyl acetate]	Non-agonist	Agonist		
C/C=C/C(=O)C(C)CC (stereo not shown) [Filbertone]	Non-agonist	Non-agonist		
CC1=C(O)C(=O)C(C)O1 (stereo not shown) [Furaneol]	Non-agonist	Non-agonist		
SCc1ccco1 [Furfurylthiol]	Non-agonist	Non-agonist		
CCCCCCCC1CCC(=O)O1 (stereo not shown) [Gamma-undecalactone]			Non-agonist	Non-agonist
CC(C)=CCC/C(C)=C/CO [Geraniol]	Conflicting info.	Conflicting info.		
CC(=O)OC/C=C(\C)CCC=C(C)C [Geranyl acetate]	Conflicting info.	Conflicting info.		
COc1ccccc1O [Guaiacol]	Non-agonist	Non-agonist		
CC(C=O)Cc1ccc2c(c1)OCO2 (stereo not shown) [Helional]			Agonist	Agonist
CCCCCCC=O [Heptanal]	Conflicting info.	Agonist		

Structure (SMILES)	Class (agonist / non-agonist / conflicting info.) for OR1A1 [1, 3]	Class (agonist / non-agonist / antagonist / conflicting info.) for OR2W1 [2, 4]	Class (agonist / non-agonist / conflicting info.) for OR1A1 [1]	Class (agonist / non-agonist / antagonist / conflicting info.) for OR2W1 [2]
CCCCCCC(=O)O [Heptanoic acid]	Non-agonist	Non-agonist		
CCCCCCCO [Heptanol]	Conflicting info.	Agonist		
CCCCCCCOC(=O)C(C)C [Heptyl isobutyrate]			Non-agonist	Non-agonist
CCCCCC=O [Hexanal]	Non-agonist	Conflicting info.		
CCCCCC(=O)O [Hexanoic acid]			Non-agonist	Non-agonist
CCCCCCO [Hexanol]	Non-agonist	Conflicting info.		
CCCCCCOC(C)=O [Hexyl acetate]	Non-agonist	Agonist		
CCC1OC(C)=C(O)C1=O (stereo not shown) [Homofuraneol]	Non-agonist	Non-agonist		
CC(CC=O)CCCC(C)(C)O (stereo not shown) [Hydroxy-citronellal]	Conflicting info.	Non-agonist		
CC(=O)OCCC(C)C [Isoamyl acetate]	Non-agonist	Agonist		
CC(C)CO [Isobutyl alcohol]	Non-agonist	Non-agonist		
CC(C)CN [Isobutyl amine]	Conflicting info.	Antagonist		
CC(C)C=O [Isobutylraldehyde]	Non-agonist	Non-agonist		
CC(C)C(=O)O [Isobutyric acid]	Non-agonist	Non-agonist		
CC(C)CC=O [Isovaleraldehyde]	Non-agonist	Non-agonist		
CC(C)CC(=O)O [Isovaleric acid]	Non-agonist	Antagonist		
C=CC(C)(O)CCC=C(C)C (stereo not shown) [Linalool]	Conflicting info.	Non-agonist		
CC(C)(O)CCCC1=CCC(C=O)CC1 (stereo not shown) [Lyral]	Conflicting info.	Non-agonist		
Cc1occc(=O)c1O [Maltol]	Non-agonist	Non-agonist		
CC(C)[C@@H]1CC[C@@H](C)CC1=O [Menthone]	Conflicting info.	Non-agonist		
CSCCC=O [Methional]	Non-agonist	Non-agonist		
CSCCCO [Methionol]	Non-agonist	Non-agonist		
CSSc1ccoc1C [Methyl 2-methyl-3-furyl disulfide]	Non-agonist	Non-agonist		
